Reference: patent publication US20240109934A1, “ANTIBIOTICS WITH IMPROVED DRUG RESISTANCE PROFILE” (priority 2021, published 2024)
Where two headings read alike, the source gives them in different places.

What was measured:
[1] = system: clinical isolates of S. aureus; conditions: cited from earlier work
S. aureus ATCC 29213 = test: MIC by micro-dilution broth method (CLSI); assay type: cell-based; conditions: Staphylococcus aureus, ATCC29213; WT S. aureus ATCC 29213, n = 3; read-out: MIC Without Human Serum
[2] = system: multidrug-resistant clinical isolates of S. aureus; test: MIC against multidrug-resistant clinical isolates of S. aureus; assay type: cell-based; conditions: for MIC: Staphylococcus aureus, read-out: MIC
[3] = system: S. aureus resistant mutants with EF-G (fusA) mutations; test: microbe, parasite or virus in culture; assay type: cell-based; conditions: Staphylococcus aureus
Experimental: Antimicrobial Susceptibility Tests. Susceptibility testing was performed in biological triplicate, using the micro-dilution broth method as outlined by the Clinical and Laboratory Standards Institute. Bacteria were cultured with cation-adjusted Muller-Hinton broth (Sigma-Aldrich, Cat #90922) in round-bottom 96-well plates (Corning, Cat #3788). Human serum (Ultrafiltrate, unspecified gender, 30K Dalton membrane filtered) was purchased from BioIVT (Hicksville, NY).
Selection of Resistant Mutants. Resistant mutants were selected via the large inoculum method. Briefly, S. aureus ATCC 29213 (1×10^9 CFU) were plated on 100 mm plates of LB agar containing 4, 2, 1, 0.5, and 0.25 μg/mL.
Sequencing of fusA. FusA was amplified by colony PCR. Colonies were picked and diluted in 100 μL sterile H2O. PCR reactions are setup by combining MiFi Mix (Bioline, London, UK), 20 μM primer mix [fusA-F2, fusA_seq1, Forward EF-G2, and Reverse EF-G](S. aureus ATCC 29213), template DNA, and H2O. Reactions were performed on C1000 Thermal Cycler (Bio-Rad, Hercules, CA) with the following conditions: 5 minutes denaturation at 95° C., followed by 30 cycles of 20 seconds at 95° C., 20 seconds at 50° C., and either 1 minute (fusA1) or 1.5 minutes (fusA2) at 72° C. A 10 μL portion of the PCR reaction mixture was analyzed by agarose gel to confirm the product. PCR reactions were purified using GeneJET PCR Purification Kit (Thermo Scientific). PCR amplicons were submitted to the Core DNA Sequencing Facility at the University of Illinois at Urbana-Champaign for Sanger sequencing with the following primers to sequence the fusA [fusA2, fusA_seq1, Forward EF-G2, Forward EF-G3, Forward EF-G4]

[4] = system: multidrug-resistant clinical isolates of E. faecium; test: MIC against multidrug-resistant clinical isolates of E. faecium; assay type: cell-based; conditions: for MIC: Enterococcus faecium, read-out: MIC
[5] = Mouse liver microsome stability assay; assay type: in vitro ADME; conditions: male, CD-1, mouse, microsomes, 3 h, 50 μM, pH 7.4
Procedure, shortened: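 Compound at 50 μM final (0.5% DMSO) incubated with pooled male CD-1 mouse liver microsomes (1 mg/mL protein) plus NADPH regenerating system in PBS pH 7.4 at 37° C. for 3 h. Samples at 0 and 3 h quenched with internal standard and quantified by LC/MS/MS (MRM).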

CC(=O)O[C@H]1C[C@@]2(C)[C@@H](C[C@@H](O)[C@H]3[C@@]4(C)CC[C@@H](O)[C@@H](C)[C@@H]4CC[C@@]32C)/C1=C(\CCC=C(C)C)C(=O)O [FA, Fusidic acid]
8 µg/mL: MIC ([3]; read-out: MIC for FA, strain FA-32X-2, EF-G T436I)
1 µg/mL: MIC ([4]; E. faecium AR0579 (CDC))
4 to 1024 µg/mL: MIC range ([1]; strains that possess the fusB gene)
16 µg/mL: MIC ([3]; read-out: MIC for FA, strain FA-32X-6, EF-G T436I)
0.0625 µg/mL: MIC ([2]; NRS3, S. aureus NRS3 (NARSA)) | MIC ([2]; NRS4, S. aureus NRS4 (NARSA)) | MIC ([2]; NRS17, S. aureus NRS17 (NARSA)) | MIC ([2]; NRS21, S. aureus NRS21 (NARSA)) | MIC ([2]; NRS22, S. aureus NRS22 (NARSA)) | MIC ([2]; NRS24, S. aureus NRS24 (NARSA)) | MIC ([2]; NRS26, S. aureus NRS26 (NARSA)) | MIC ([2]; NRS51, S. aureus NRS51 (NARSA)) | MIC ([2]; NRS77, S. aureus NRS77 (NARSA), no noted resistance) | MIC ([2]; NRS382, S. aureus NRS382 (NARSA)) | MIC ([2]; S. aureus AR0565 (CDC))
no cross-resistance with vancomycin: Cross-resistance with vancomycin ([2]; 29 clinical isolates of S. aureus) | Cross-resistance with vancomycin ([4]; E. faecium clinical isolates)
128 µg/mL: MIC ([3]; read-out: MIC for FA, strain FA-32X-1, EF-G H457Y) | MIC ([3]; read-out: MIC for FA, strain FA-32X-3, EF-G H457Y) | MIC ([3]; read-out: MIC for FA, strain FA-32X-7, EF-G H457Y) | MIC ([3]; read-out: MIC for FA, strain FA-32X-8, EF-G H457Y) | MIC ([3]; read-out: MIC for FA, strain FA-32X-10, EF-G H457Y) | MIC ([3]; read-out: MIC for FA, strain FA-32X-12, EF-G H457Y) | MIC ([3]; read-out: MIC for FA, strain FA-32X-13, EF-G H457Y) | MIC ([3]; read-out: MIC for FA, strain FA-32X-14, EF-G H457Y) | MIC ([3]; read-out: MIC for FA, strain FA-32X-15, EF-G H457Y) | MIC ([3]; read-out: MIC for FA, strain FA-32X-19, EF-G H457Y) | MIC ([3]; read-out: MIC for FA, strain FA-32X-20, EF-G H457Y)
99.7%: S. aureus strains susceptible ([1]; United States, analysis conducted in 2011)
82 ± 0.8%^: Metabolic Stability in Mouse Liver Microsomes (percent remaining) [5]
2 to 64 µg/mL: MIC range ([1]; staphylococcal clinical isolates that carry the fusC gene)
4 µg/mL: MIC ([4]; E. faecium AR0572 (CDC)) | MIC ([4]; E. faecium AR0576 (CDC))
0.125 µg/mL: MIC (S. aureus ATCC 29213) | MIC ([2]; NRS18, S. aureus NRS18 (NARSA)) | MIC ([2]; NRS23, S. aureus NRS23 (NARSA)) | MIC ([2]; NRS27, S. aureus NRS27 (NARSA)) | MIC ([2]; NRS29, S. aureus NRS29 (NARSA)) | MIC ([2]; NRS68, S. aureus NRS68 (NARSA)) | MIC ([2]; NRS73, S. aureus NRS73 (NARSA)) | MIC ([2]; NRS74, S. aureus NRS74 (NARSA)) | MIC ([2]; NRS76, S. aureus NRS76 (NARSA)) | MIC ([2]; NRS383, S. aureus NRS383 (NARSA)) | MIC ([2]; NRS384, S. aureus NRS384 (NARSA)) | MIC ([2]; S. aureus AR0561 (CDC)) | MIC ([2]; S. aureus AR0562 (CDC)) | MIC ([2]; S. aureus AR0563 (CDC)) | MIC ([2]; S. aureus AR0564 (CDC)) | MIC ([2]; S. aureus AR0566 (CDC)) | MIC ([2]; S. aureus AR0567 (CDC)) | MIC ([2]; S. aureus AR0568 (CDC)) | MIC ([2]; S. aureus AR0570 (CDC))
2 µg/mL: MIC ([4]; E. faecium AR0574 (CDC)) | MIC ([4]; E. faecium AR0575 (CDC)) | MIC ([4]; E. faecium AR0578 (CDC))
